Patent US20250230193A1, “CYCLIC COMPOUND HAVING SELECTIVE KRAS INHIBITORY EFFECT ON HRAS AND NRAS” (CHUGAI SEIYAKU KABUSHIKI KAISHA, priority 2022, published 2025)
Where a SMILES comes first, the peptide text is derived from it. Bridges are numbered along the chain shown (N, C = ends). [ ]: non-standard residue; d: D form. The star is where a group is joined. hPhe(3,5-F2-4-CF3) = N[C@@H](CCc1cc(F)c(C(F)(F)F)c(F)c1)C(=O)O; hPhe(3-Cl-4-CF3) = N[C@@H](CCc1ccc(C(F)(F)F)c(Cl)c1)C(=O)O; NPrPhe(4-CF3) = CCCN[C@@H](Cc1ccc(C(F)(F)F)cc1)C(=O)O; NMeGly(cPent) = CN[C@H](C(=O)O)C1CCCC1; Pro(4,4-F2) = O=C(O)[C@@H]1CC(F)(F)CN1; NMeD = CN[C@@H](CC(=O)O)C(=O)O; NMeL = CN[C@@H](CC(C)C)C(=O)O; αMeS = C[C@](N)(CO)C(=O)O; Morpholide = C1CN(*)CCO1; NMeA = CN[C@@H](C)C(=O)O; Ac5c = NC1(C(=O)O)CCCC1; Aze = O=C(O)[C@@H]1CCN1; Ac4c = NC1(C(=O)O)CCC1; NEtG = CCNCC(=O)O; Sar = CNCC(=O)O; Allyl = C=CC*

Columns and labels:
[1] = molecular target: GDP-bound NRAS wild-type protein (Homo sapiens, UniProt P01111); experiment: Binding to NRAS by surface plasmon resonance (SPR), Single Cycle Kinetics; conditions: SPR; for NRAS/KRAS (ratio of KD value with respect to NRAS to KD value with respect to KRAS): GDP-bound NRAS wild-type vs GDP-bound KRAS wild-type
[2] = molecular target: GDP-bound HRAS wild-type protein (Homo sapiens, UniProt P01112); experiment: Binding to HRAS by surface plasmon resonance (SPR), Single Cycle Kinetics; conditions: SPR; for HRAS/KRAS (ratio of KD value with respect to HRAS to KD value with respect to KRAS): GDP-bound HRAS wild-type vs GDP-bound KRAS wild-type
Chain of GDP-bound HRAS wild-type protein (P01112 whole entry): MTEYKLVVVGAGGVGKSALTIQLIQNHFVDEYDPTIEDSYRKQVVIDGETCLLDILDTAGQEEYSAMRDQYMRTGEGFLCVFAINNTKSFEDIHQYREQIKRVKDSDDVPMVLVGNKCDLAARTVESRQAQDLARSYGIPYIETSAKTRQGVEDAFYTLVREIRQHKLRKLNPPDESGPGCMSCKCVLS

Chain of GDP-bound NRAS wild-type protein (P01111 whole entry): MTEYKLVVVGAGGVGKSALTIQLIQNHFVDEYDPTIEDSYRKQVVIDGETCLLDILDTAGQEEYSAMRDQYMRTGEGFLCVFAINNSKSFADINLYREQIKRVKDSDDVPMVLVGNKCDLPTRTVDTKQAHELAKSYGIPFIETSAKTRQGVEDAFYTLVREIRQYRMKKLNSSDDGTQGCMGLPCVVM

CCC[C@@H]1C[C@H]2C(=O)NC3(CCCC3)C(=O)N(C)[C@@H](C3CCCC3)C(=O)N(C)[C@H](C(=O)N(C)C)CC(=O)N(C)[C@@H](CC)C(=O)N[C@@H]([C@@H](C)CC)C(=O)N(C)CC(=O)N(C)[C@H]3C/C=C\CCN(C3=O)[C@@H](Cc3ccc(C)cc3)C(=O)N(C)CC(=O)N[C@@H](CCc3cc(F)c(C(F)(F)F)c(F)c3)C(=O)N2C1 [PP2227]
NRAS/KRAS (ratio of KD value with respect to NRAS to KD value with respect to KRAS) [1]: A (a compound having 10 or more and less than 20 is denoted as A) | HRAS/KRAS (ratio of KD value with respect to HRAS to KD value with respect to KRAS) [2]: A (a compound having 10 or more and less than 20 is denoted as A)

CCCN1C(=O)[C@@H]2CCN2C(=O)[C@H](C)N(C)C(=O)[C@H]([C@@H](C)CC)NC(=O)[C@H](CC(C)C)N(C)C(=O)C[C@@H](C(=O)N2CCOCC2)N(C)C(=O)[C@H](C2CCCC2)N(C)C(=O)C2(CCCC2)NC(=O)[C@@H]2CC(F)(F)CN2C(=O)[C@H](CCc2ccc(C(F)(F)F)c(Cl)c2)NC(=O)CN(C)C(=O)[C@@H]1Cc1ccc(C(F)(F)F)cc1 [PP0196] ([NMeL]I[NMeA][Aze][NPrPhe(4-CF3)][Sar][hPhe(3-Cl-4-CF3)][Pro(4,4-F2)][Ac5c][NMeGly(cPent)][NMeD]-Morpholide; lactam N-11)
NRAS/KRAS (ratio of KD for GDP-bound NRAS wild-type to KD for KRAS) ([1]; KD ratio NRAS/KRAS): C (A compound having a KD ratio of 0.1 or more and less than 3 is denoted as C) | HRAS/KRAS (ratio of KD for GDP-bound HRAS wild-type to KD for KRAS) ([2]; KD ratio HRAS/KRAS): C (A compound having a KD ratio of 0.1 or more and less than 3 is denoted as C)

CCCN1C(=O)CN(C)C(=O)CN(CC)C(=O)[C@H]([C@@H](C)CC)NC(=O)[C@H](CC(C)C)N(C)C(=O)C[C@@H](C(=O)N(C)C)N(C)C(=O)[C@H](C2CCCC2)N(C)C(=O)C2(CCC2)NC(=O)[C@@H]2CC(F)(F)CN2C(=O)[C@H](CCc2ccc(C(F)(F)F)c(Cl)c2)NC(=O)CN(C)C(=O)[C@@H]1Cc1ccc(C(F)(F)F)cc1 [PP0426] ([NMeL]I[NEtG][Sar][NPrPhe(4-CF3)][Sar][hPhe(3-Cl-4-CF3)][Pro(4,4-F2)][Ac4c][NMeGly(cPent)][NMeD]-NMe2; lactam N-11)
NRAS/KRAS (ratio of KD value with respect to GDP-bound NRAS wild-type protein to KD value with respect to KRAS) ([1]; KD ratio NRAS/KRAS): C (A compound having a KD ratio of 0.1 or more and less than 3 is denoted as C) | HRAS/KRAS (ratio of KD value with respect to GDP-bound HRAS wild-type protein to KD value with respect to KRAS) ([2]; KD ratio HRAS/KRAS): C (A compound having a KD ratio of 0.1 or more and less than 3 is denoted as C)

CC[C@@H]1C[C@H]2C(=O)NC3(CCCC3)C(=O)N(C)[C@@H](C3CCCC3)C(=O)N(C)[C@H](C(=O)N(C)C)CC(=O)N(C)[C@@H](CC(C)C)C(=O)N[C@@H]([C@@H](C)CC)C(=O)N(C)CC(=O)N(C)[C@H]3C/C=C\CCN(C3=O)[C@@H](Cc3ccc(C)cc3)C(=O)N(C)CC(=O)N[C@@H](CCc3cc(F)c(C(F)(F)F)c(F)c3)C(=O)N2C1 [PP2191]
NRAS/KRAS (ratio of KD value with respect to NRAS to KD value with respect to KRAS) [1]: A (a compound having 10 or more and less than 20 is denoted as A) | HRAS/KRAS (ratio of KD value with respect to HRAS to KD value with respect to KRAS) [2]: B (a compound having 3 or more and less than 10 is denoted as B)

CCO[C@@H]1C[C@H]2C(=O)NC3(CCC3)C(=O)N(C)[C@@H](C3CCCC3)C(=O)N(C)[C@H](C(=O)N(C)C)CC(=O)N(C)[C@@H](CC)C(=O)N[C@@H]([C@@H](C)CC)C(=O)N(C)CC(=O)N(C)[C@H]3CCCCN(C3=O)[C@@H](Cc3ccc(C(F)(F)F)cc3)C(=O)N(C)CC(=O)N[C@@H](CCc3ccc4ccsc4c3)C(=O)N2C1 [PP0888]
NRAS/KRAS (ratio of KD value with respect to NRAS to KD value with respect to KRAS) ([1]; KD ratio): C (A compound having a KD ratio of 0.1 or more and less than 3 is denoted as C) | HRAS/KRAS (ratio of KD value with respect to HRAS to KD value with respect to KRAS) ([2]; KD ratio): B (a compound having 3 or more and less than 10 is denoted as B)

CCO[C@@H]1C[C@H]2C(=O)NC3(CCC3)C(=O)N(C)[C@@H](C3CCCC3)C(=O)N(CCC3CCC3)[C@H](C(=O)N3CCOCC3)CC(=O)N(C)[C@@H](CC(C)C)C(=O)N[C@@H]([C@@H](C)CC)C(=O)N(C)CC(=O)N(C)[C@H]3CCCCCN(C3=O)[C@@H](Cc3ccc(C(F)(F)F)cc3)C(=O)N(C)CC(=O)N[C@@H](CCc3cc(F)c(C(F)(F)F)c(F)c3)C(=O)N2C1 [PP0640]
NRAS/KRAS (ratio of KD value with respect to GDP-bound NRAS wild-type protein to KD value with respect to KRAS) ([1]; KD ratio NRAS/KRAS): B (a compound having 3 or more and less than 10 is denoted as B) | HRAS/KRAS (ratio of KD value with respect to GDP-bound HRAS wild-type protein to KD value with respect to KRAS) ([2]; KD ratio HRAS/KRAS): B (a compound having 3 or more and less than 10 is denoted as B)

C=CCOC[C@]1(C)NC(=O)[C@@H]2CCCN2C(=O)[C@H](CCc2cc(F)c(C(F)(F)F)c(F)c2)NC(=O)CN(C)C(=O)[C@H](Cc2ccc(C(F)(F)F)cc2)N(CCC)C(=O)CN(C)C(=O)CN(C)C(=O)[C@H]([C@@H](C)CC)NC(=O)[C@H](CC(C)C)N(C)C(=O)C[C@@H](C(=O)N2CCOCC2)N(C)C(=O)[C@H](C2CCCC2)N(C)C1=O [PP0763] ([NMeL]I[Sar][Sar][NPrPhe(4-CF3)][Sar][hPhe(3,5-F2-4-CF3)]P[αMeS](Allyl)[NMeGly(cPent)][NMeD]-Morpholide; lactam N-11)
NRAS/KRAS (ratio of KD value with respect to GDP-bound NRAS wild-type protein to KD value with respect to KRAS) ([1]; KD ratio NRAS/KRAS): B (a compound having 3 or more and less than 10 is denoted as B) | HRAS/KRAS (ratio of KD value with respect to GDP-bound HRAS wild-type protein to KD value with respect to KRAS) ([2]; KD ratio HRAS/KRAS): B (a compound having 3 or more and less than 10 is denoted as B)
